From article PMC7738869, “A novel STAT3 inhibitor W2014-S regresses human non-small cell lung cancer xenografts and sensitizes EGFR-TKI acquired resistance” (Theranostics, 2021)

Legend:
[1] = target: full-length wild-type STAT3 (Homo sapiens, UniProt P40763); assay: Surface plasmon resonance analysis of binding to STAT3; conditions: SPR
Method: Biacore 8K and Biacore Insight Evaluation software were used to analyze the interaction between the agents and the protein full-length wild-type STAT3 to detect the binding affinity. Purified STAT3 (100 μg/mL) without Tris and glycerin was injected onto the CM5 Chip (GE, USA) for immobilization. Several concentrations of W2014-S or W2014-R dissolved in running buffer (1×PBS with filtration, 0.01% DMSO) were flown over the chip to produce response signals. The kinetics and affinities were calculated by the Biacore Insight Evolution software, and the results were determined as the binding affinity (KD).

A549 cells [2] = assay: Cell viability assay (CCK-8), A549; assay type: cell-based; conditions: Homo sapiens, A549, 72 h, read-out: IC50 cell proliferation, A549, 72 h
Method: (§1) Cell proliferation was measured using the Cell Counting Kit-8 (CCK-8, B34304, Bimake, USA). A549 (2 × 10^3/100 μL/well), PC-9 (3 × 10^3/100 μL/well) or PC-9/GR cells (3 × 10^3/100 μL/well) were plated into each well of 96-well plates (Costar, USA). […] Then, 10 μL of CCK-8 was added to each well, and cells were incubated for 1-4 h until the color of untreated controls turned to orange. The absorbance (A) was measured by a microplate reader (FLUOstar Omega-ACU, USA) at test and reference wavelengths of 450 nm. The percentage of growth was calculated as Cell viability (%) = [A (Compound +) - A (Blank) ] / [A (Compound -) - A (Blank) ] × 100%. Cell viability meant proliferation of cells. Each experiment was done at least in triplicate, and thrice independently.

PC-9 cells = assay: Cell viability assay (CCK-8), PC-9; assay type: cell-based; conditions: Homo sapiens, PC-9, 72 h, read-out: IC50 cell proliferation
Method: as §1

A549 cells [3] = assay: Cell apoptosis assay (Annexin V-FITC/PI flow cytometry), A549; assay type: cell-based, human; conditions: A549, 1.0 μM, 72 h
Method: Briefly, aliquots of 2 × 10^5 cells were seeded into 6-well plates and incubated for 24 h at 37 °C. […] After trypsinization and gently washing cells once with medium, the cells were washed twice with cold PBS. The precipitation was resuspended by 400 μL of 1 × binding buffer, and then resuspended cells were transferred into new 1.5 mL EP tubes. Then 3 μL of Annexin V-FITC and 5 μL of propidium iodide were added to the resuspended cells with further incubation at room temperature for 15 min in the dark. The analysis was done on Guava easyCyte (USA) and FlowJo 7.6 software.

[4] = test system: A549 cells with STAT3 knock down / knock out; assay: Cell proliferation assay in A549 cells with STAT3 knocked down (siRNA) or knocked out (CRISPR/Cas9); assay type: cell-based, human
Excerpt: To knockout the STAT3 gene in A549 cells using CRISPR/Cas9 system, the lentiCRISPRv2 vector (gift from Professor Junjian Wang, Sun Yat-Sen University, China) was used. An optimized guide RNA (gRNA) targeting the exon2 of STAT3 was designed in an online CRISPR design tool (http://crispor.tefor.net/). Then the guide RNA (synthesized by Sangon Biotech) inserted into lentiCRISPRv2 vector and the recombinant plasmid (sgSTAT3) was transfected and amplified in E.coli JM109. The confirmed and purified sgSTAT3 plasmid was transfected into A549 cells using lentivirus, after 48h post-transfection, cells were selected by introducing into 3 μg/mL puromycin for 2 weeks. Then the puromycin-resistant cells were planted into 96-wells plate with a density of one single cell per well and expanse to select the STAT3-konckout cells. The STAT3-konckout cells isolated from the single-colony were verified by western blotting analysis. The gRNA used to knockout STAT3 as follows,
Cell proliferation was measured using the Cell Counting Kit-8 (CCK-8, B34304, Bimake, USA). […] The absorbance (A) was measured by a microplate reader (FLUOstar Omega-ACU, USA) at test and reference wavelengths of 450 nm. The percentage of growth was calculated as Cell viability (%) = [A (Compound +) - A (Blank) ] / [A (Compound -) - A (Blank) ] × 100%. […]

Bcl-2, Bcl-xL and c-Myc = assay: Western blot of STAT3 downstream genes in A549 and PC-9 cells; assay type: cell-based, human; conditions: A549 and PC-9, 0-3 μM, 24 h
Method: (§2) Cells or tumor tissue were lysed with RIPA buffer (Beyotime, Shanghai, China) supplemented with protease inhibitors (Beyotime, Shanghai, China) and phosphatase inhibitors (Bimake, USA). Lysates were denatured by heating for 5 min at 99 °C and loaded on 4-10% SDS-polyacrylamide gel electrophoresis. Then the proteins were transferred to polyvinylidene fluoride (PVDF) membranes (Millipore, USA). The membranes were blocked and probed with primary antibodies and secondary HPR-conjugated antibodies. At last the membranes were detected by chemiluminescence (Tanon, Shanghai, China). For co-immunoprecipitation experiments, 293T cells were plated and grew to about 80% confluency, then co-transfected with plasmids of HA-STAT3 and Flag-STAT3 using Lipofectamine 2000. After 24 h, cells were treated with different concentrations of W2014-S for following 24 h, and stimulated with IL-6 (100 ng/mL) for 1 h. Cells were lysed with IP RIPA buffer (Beyotime, Shanghai, China) supplemented with protease inhibitors (Beyotime, Shanghai, China) and phosphatase inhibitors (Bimake, America), and lysates were cultured with Anti-flag Affinity Gel (B23102, Bimake, USA) overnight at 4 ℃. The gel was washed by PBST for three times and added 1×loading buffer and denatured by heating for 5 min at 99 ℃. Then the proteins were resolved on SDS-PAGE, transferred to PVDF membranes and analysed with immunoblotting.

JAK2 = assay: Western blot of phosphorylated and total JAK2 in A549 and PC-9 cells; assay type: cell-based, human; conditions: A549 and PC-9, 0-3 μM, 24 h
Method: as §2

STAT3 = assay: STAT3-dependent dual-luciferase reporter assay in A549 cells; assay type: cell-based, human; conditions: A549, 0, 0.3, 1 μM, 24 h
Method: The STAT3-dependent luciferase reporter, pGL3-STAT3, contained seven copies of the STAT3-specific binding sequence ([…]) in the C-reactive protein gene promoter, and drove firefly luciferase expression. The new construct was confirmed by sequencing. For luciferase studies, 293T cells or A549 cells in 96-well plates were transiently co-transfected with the appropriate plasmids (10 ng TKRL as internal control vector for normalizing and 50 ng of pGL3-STAT3) using Lipofectamine 2000 (11668500, Invitrogen, Carlsbad, CA, USA) which was following the manufacturer's protocol. After 24 h, HEK-293T cells were treated with 0-1 μM W2014-S for 24 h, and stimulated with IL-6 (100 ng/mL, PeproTech) for 1 h or EGF (50 ng/mL, PeproTech) for 30 min. Subsequently, cytosolic extracts were prepared for dual-luciferase reporter assay.

Acute toxicity study = assay type: in vivo; conditions: KM mice, 100, 300 and 500 mg/kg i.p., observed 14 days
Method: KM mice (4-5 weeks of age, weighing 18-22g, both male and female) for acute toxicity experiment were provided from the Experimental Animal Center of Sun Yat-sen University (Guangdong, China) and were housed in a specific pathogen-free facility. To test the acute toxicity, 40 mice were randomly distributed into 4 groups, and treated with W2014-S at 100 mg/kg, 300 mg/kg, and 500 mg/kg by intraperitoneal injection. Each group have 10 mice (half male and half female). […] All animal experiments were approved by the Research Ethics Committee of Sun Yat-sen University (SYSU-IACUC-2020-000312).

Chain of full-length wild-type STAT3 (P40763 whole entry): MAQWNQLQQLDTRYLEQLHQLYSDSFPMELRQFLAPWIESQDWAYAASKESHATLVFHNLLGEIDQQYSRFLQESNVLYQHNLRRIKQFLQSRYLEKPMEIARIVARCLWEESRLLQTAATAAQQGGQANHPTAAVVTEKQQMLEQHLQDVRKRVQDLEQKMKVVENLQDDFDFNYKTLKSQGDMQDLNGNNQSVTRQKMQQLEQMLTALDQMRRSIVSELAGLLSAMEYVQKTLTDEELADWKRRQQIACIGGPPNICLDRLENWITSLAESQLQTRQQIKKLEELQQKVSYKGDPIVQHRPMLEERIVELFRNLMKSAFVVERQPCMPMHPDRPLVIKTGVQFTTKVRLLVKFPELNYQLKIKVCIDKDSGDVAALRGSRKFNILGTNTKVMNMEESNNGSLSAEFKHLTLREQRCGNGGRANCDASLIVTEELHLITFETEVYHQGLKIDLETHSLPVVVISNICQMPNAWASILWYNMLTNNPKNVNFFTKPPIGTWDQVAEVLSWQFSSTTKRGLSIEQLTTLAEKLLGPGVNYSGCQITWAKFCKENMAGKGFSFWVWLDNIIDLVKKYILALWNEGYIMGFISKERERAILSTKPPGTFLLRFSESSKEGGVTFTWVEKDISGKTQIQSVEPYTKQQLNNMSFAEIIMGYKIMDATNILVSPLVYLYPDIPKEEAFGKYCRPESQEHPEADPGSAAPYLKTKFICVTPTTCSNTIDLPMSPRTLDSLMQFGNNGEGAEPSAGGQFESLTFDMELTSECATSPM

Question: With `C[C@H](Oc1ccc(-c2nc3nc(C4=CCN(C(=O)OC(C)(C)C)CC4)ccc3[nH]2)cc1)c1ccccc1` [W2014-S] as the molecule, how does the Kd [1] read?
Answer: Its Kd is 3.64 µM.

Question: What about the IC50 (A549 cells [2]) of the same molecule?
Answer: Its IC50 is 0.89 µM.

Question: And the IC50 (PC-9 cells)?
Answer: Its IC50 is 2.36 µM.

Question: And the apoptosis (A549 cells [3])?
Answer: The apoptosis was “induced apoptosis”.

Question: What about the “anti-cancer activities in STAT3 knocked out cells” value ([4]; A549, Crispr/cas9) of the same molecule?
Answer: Its value is “significantly attenuated”.

Question: And the “anti-cancer activities in STAT3 knocked down cells” value ([4]; A549, siRNA interference)?
Answer: The value was “significantly attenuated”.

Question: What about the “expression of STAT3 downstream genes Bcl-2, Bcl-xL and c-Myc” value (Bcl-2, Bcl-xL and c-Myc) of the same molecule?
Answer: The value was “inhibited by W2014-S dose-dependently”.

Question: And the “protein level of phosphorylated JAK2 and total JAK2” value (JAK2)?
Answer: The value was “little or no effect”.

Question: What about the “STAT3 transcriptional activity (luciferase reporter)” value (STAT3) of the same molecule?
Answer: Its value is “inhibited”.

Question: And the “acute toxicity: body weights and signs of toxicity” value (Acute toxicity study)?
Answer: Its value is “no significant changes in body weights, or obvious signs of toxicity”.
